Data: patent US20010036944A1, “Certain benzothiazine dioxide endothelin antagonists and processes for their preparation” (priority 1997, published 2001)
Structures can show the parent of a compound that is named as a salt.

Key:
[1] = target: T1, recombinant human ETAR (HETA) (Homo sapiens, UniProt P25101); test: Radioligand binding, [125I]ET-1 to membranes of Ltk- cells expressing recombinant human ETAR (HETA); conditions: read-out: IC50 of ET-1 binding to human ETA receptors
T1 construct: expressed in transfected cells; host or cells: Ltk- cells (membrane preparation)
T1 sequence (P25101 21-427): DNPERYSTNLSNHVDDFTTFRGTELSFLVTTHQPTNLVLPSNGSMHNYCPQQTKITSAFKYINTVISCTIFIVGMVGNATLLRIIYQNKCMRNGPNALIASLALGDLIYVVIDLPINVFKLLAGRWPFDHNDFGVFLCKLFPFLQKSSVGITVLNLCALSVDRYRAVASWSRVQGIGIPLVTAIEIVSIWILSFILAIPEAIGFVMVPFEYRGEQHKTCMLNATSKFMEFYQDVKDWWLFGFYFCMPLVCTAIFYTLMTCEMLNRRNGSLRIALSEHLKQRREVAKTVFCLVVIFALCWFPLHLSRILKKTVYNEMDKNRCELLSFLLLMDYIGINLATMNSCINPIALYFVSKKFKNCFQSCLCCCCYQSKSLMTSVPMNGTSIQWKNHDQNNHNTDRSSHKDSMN
Procedure: (§1) The following cultured cells were used in binding experiments: Ltk-cells expressing recombinant human ETAR (HETA), and CHOKI cells expressing recombinant human ETBR (HETB).
(§2) Membranes were prepared from cultured cells by lysing cells in cold lysis buffer (5 mM HEPES, 2 mM EDTA, pH 7.4) and homogenizing with a Dounce “A” homogenizer. The homogenate was centrifuged at 30,000×g for 20 minutes at […]. Membrane pellets were suspended in cold buffer containing 20 mM Tris, 2 mM EDTA, 200 μM Pefabloc, 10 μM phosphoramidon, 10 μM leupeptin, 1 μM pepstatin at pH 7.4 and frozen at […] until use. Membranes were thawed and homogenized with a Brinkmann Polytron then diluted in tissue buffer containing 20 mM Tris, 2 mM EDTA, 200 μM Pefabloc, and 100 μM bacitracin (pH 7.4). Radioligand and competing ligands were prepared in binding buffer containing 20 mM Tris, 2 mM EDTA, and 0.1% BSA.
(§3) The assay was terminated by filtration over Whatman GF/B filters which were presoaked with 50 mM Tris, pH 7.4 containing 0.2% BSA and 100 μM bacitracin. Nonspecific binding was defined as binding in the presence of 100 nM ET-1.

[2] = target: T2, recombinant human ETBR (HETB) (Homo sapiens, UniProt P24530); test: Radioligand binding, [125I]ET-1 to membranes of CHOKI cells expressing recombinant human ETBR (HETB); conditions: [125I]ET-1 binding, human ETB, CHOKI cell membranes
T2 construct: expressed in transfected cells; host or cells: CHOKI (CHO-K1) cells (membrane preparation)
T2 sequence (P24530 27-442): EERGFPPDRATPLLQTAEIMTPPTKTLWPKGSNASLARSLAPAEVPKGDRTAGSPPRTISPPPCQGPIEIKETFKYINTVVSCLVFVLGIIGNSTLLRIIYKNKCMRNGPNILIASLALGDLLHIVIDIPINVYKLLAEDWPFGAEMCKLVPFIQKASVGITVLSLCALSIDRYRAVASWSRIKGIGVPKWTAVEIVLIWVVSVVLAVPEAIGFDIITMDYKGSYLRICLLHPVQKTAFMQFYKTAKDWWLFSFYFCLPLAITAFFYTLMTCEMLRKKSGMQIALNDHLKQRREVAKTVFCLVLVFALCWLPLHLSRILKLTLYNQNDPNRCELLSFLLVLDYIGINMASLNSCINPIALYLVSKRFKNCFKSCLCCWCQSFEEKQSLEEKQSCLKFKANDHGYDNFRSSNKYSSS
Procedure: as §1, §2, §3

[3] = tested on: ETA, rabbit femoral artery; test: Antagonism of ET-1 stimulated vasoconstriction (VERAA) in the rabbit femoral artery (ETA)
Description: In Vitro Antagonism of ET-1 Stimulated Vasoconstriction (VERAA) in the Rabbit Femoral Arterv (ETA) and Sarafotoxin 6C Stimulated Vasoconstriction in the Rabbit Pulmonarv Artery (ETB)
Male New Zealand rabbits were killed by cervical dislocation and exsanguination. Femoral and pulmonary arteries were isolated, cleaned of connective tissue, and cut into 4mm rings. The endothelium was denuded by placing the rings over hypodermic tubing (32 gauge for femoral rings and 28 gauge for pulmonary rings, Small Parts, Inc., Miami, Fla.) and gently rolling them. Denuded rings were mounted in 20 mL organ baths containing Krebsbicarbonate buffer (composition in mM: NaCl, 118.2; NaHCO3, 24.8; KCl, 4.6; MgSO4 7H2O, 1.2; KH2PO4, 1.2; CaCl2 2H2O; CaNa2 EDTA, 0.026;, dextrose, 10.0), that was maintained at 37° C. and gassed continuously with 5% CO2 in oxygen (pH 7.4). Resting tension was adjusted to 3.0 g for femoral and 4.0 g pulmonary arteries; the rings were left for 90 minutes to equilibrate. Vascular rings were tested for lack of functional endothelium (ie, lack of an endotheliumdependent relaxation response to carbachol ([…]) in norepinephrine ([…]) contracted rings. Agonist peptides, ET-1 -(femoral), and S6c (pulmonary), were cumulatively added at 10-minute intervals. The ET antagonists were added 30 minutes prior to adding the agonist.

[4] = tested on: ETA receptor, human pulmonary artery smooth muscle cells; test: Blocking ET-1 induced Ca++ transients in human pulmonary artery smooth muscle cells; assay type: cell-based; conditions: read-out: IC50 blocking ET-1 induced Ca++ transients via the ETA receptor
bET-1 pressor response [5] = test: Inhibition of bET-1 induced pressor effect in rat; assay type: in vivo; conditions: oral
Procedure: Inhibition of bETI Induced Pressor Effect in Rat Male Sprague-Dawley (Charles River Laboratories, Kingston, Ontario, Canada) weighing 250 to 350 g are anesthetized (Inactin, 120 mg/kg, I.P.) and acutely instrumented with a carotid artery catheter to monitor arterial blood pressure and with a jugular vein catheters to administer intravenous drugs. Once instrumented, the rats are ganglionicblocked with mecamylamine (1.25 mg/kg, I.V.) to prevent hemodynamic reflexes and then challenged with big endothelin-1 (bET-1) (1.0 nmol/kg, I.V.). The peak arterial pressor response in rats pre-treated with selected compounds of invention compared to vehicletreated rats is used to determine activity expressed as % inhibition. For I.V. activity selected compounds of invention was dose 10 minutes before the bET-1 challenge, and for oral activity selected compounds of invention was administered via oral gavage 8 or 24 hours before the bET-1 challenge.

bET-1 pressor response [6] = test: Inhibition of bET-1 pressor response in dog; assay type: in vivo; conditions: Canis lupus familiaris, oral, 24 hours postdose
[7] = tested on: acute hypoxic pulmonary hypertension; test: Acute hypoxic pulmonary hypertension in the rat; assay type: in vivo; conditions: oral
Pharmacokinetics in rat = conditions: in vivo
Pharmacokinetics in dog = conditions: in vivo

## CCc1cc(C2=C(C(=O)O)N(c3ccccc3C(F)(F)F)S(=O)(=O)c3ccccc32)cc2c1OCO2 [Example 10, 4-(7-Ethylbenzo[1,3]dioxol-5yl)-1,1 dioxo-2-(2-trifluoromethyl-phenyl) 1,2-dihydro1λ^6-benzo[e]11.2]thiazine-3-carboxylic acid, sodium salt]
[1]
  IC50: 0.6 nM
[2]
  IC50: 2200 nM
[3]
  pA2, antagonism to ET-1 stimulated vasoconstriction in rabbit femoral artery: 7.7
[3]; ET-1 stimulated vasoconstriction, rabbit femoral artery
  VERAA (pA2): 7.7
[4]
  IC50: 0.2 nM
bET-1 pressor response [5]; 10 mg/kg, 8 hours postdose
  inhibition at 10 mg/kg: 44%
bET-1 pressor response [5]; 30 mg/kg, 24 hours postdose
  inhibition at 30 mg/kg: 48%
bET-1 pressor response [6]
  inhibition at 15 mg/kg: 25%
[7]; dose dependent, read-out: ED50, inhibition of acute hypoxic pulmonary hypertension
  ED50: 0.8 mg/kg
[7]; plasma concentration, read-out: plasma EC50, inhibition of acute hypoxic pulmonary hypertension
  EC50: 0.046 µg/mL
Pharmacokinetics in rat; oral
  bioavailability: 77%
Pharmacokinetics in rat; read-out: terminal elimination t1/2 (converted)
  half-life: 510 min
Pharmacokinetics in dog
  half-life: 132 min
Pharmacokinetics in dog; oral
  bioavailability: 100%
